# Entries after “also recorded” stand apart in the source; their conditions may differ.
# What was measured:
# [1] = tested on: Ras effectors ERK and AKT in DLD-1 cells; test: Western blot of downstream RAS signaling (P-ERK, P-AKT, P-MEK) in serum-starved DLD-1 cells; type: cell-based, human; details: 100 μM; for activation of AKT and ERK / relative capacity to activate Ras effectors ERK and AKT among the compounds: DLD-1 serum-starved cells, 3 hours
# Source text: DLD-1 (KRASWT/G13D) (clone V15, #HD PAR-086) colorectal adenocarcinoma cell line and DLD-1 knockout of mutant KRAS allele, DLD-1 KO (KRASWT/−) (clone DWT7, #HD105-002), were obtained from Horizon Discovery Ltd. (Cambridge, UK). hTERT-RPE (KRASWT/WT) immortalized retinal pigment epithelial human cell line was obtained from the […] (ATCC). DLD-1 KO cells stably expressing HA-KRAS G12V were previously generated in our laboratory (Cabot et al., 2021). All cells were grown in DMEM-HAM s F12 (1:1) supplemented with 10% foetal bovine serum (Biological Industries, Israel), penicillin, streptomycin, and nonessential amino acids. Cells were tested once per month for mycoplasma contamination.
# Cells were seeded in a media containing 10% FBS for 24 hours and then they were serum starved (0.1% FBS) for the next 24 hours. Afterwards, they were incubated with the different compounds during the times specified in each figure. When indicated, also in order to activate downstream KRAS cell signalling, treatment for 10 minutes with EGF (50 ng/mL) (Sigma-Aldrich) was performed.
# Proteins were resolved by SDS-PAGE, transferred onto PVDF membranes (Immobilon-P, Millipore) and Western blot was performed as previously described (Cabot et al, Oncogene 2021). The following primary antibodies were used: anti-c-RAF (BD Transduction 610151, 1:500); anti-phospho-c-RAF S338 (Cell Signaling 9427, 1:500); anti-AKT (Cell Signaling 9272, 1:1000); anti-phospho-AKT T308 (Cell Signaling 4056, 1:1000); anti-phospho-MEK1/2 S221 (Cell Signalling […]); anti-p44/42 MAPK (ERK1/2) (Cell Signaling 9102, 1:2000); anti-phospho-p44/42 MAPK(ERK1/2) T202/Y204 (Cell Signaling 4370, 1:2000); anti-HA (Sigma-Aldrich H6908, 1:1000); anti-cleaved-caspase-3 (Asp175) (Cell Signaling 9661, 1:1000); HRP-coupled secondary antibodies used: goat anti-rabbit (BioRad 170-6515, 1:3000) or goat anti-mouse (BioRad 170 6516, 1:3000).
# For analysis of RAS signalling, cells were lysed in a buffer containing 67 mM Tris-HCl pH 6.8 and 2% SDS and then the samples were heated at 97° C. for 15 minutes. Protein concentration of the lysates was assessed using the Lowry method. An aliquot of […] of protein per sample was loaded onto the gels.
# We first analyzed the effect of P14 on the activation of downstream RAS signaling pathways (RAF/MEK/ERK and PI3K/AKT) in DLD-1 cells (CRC cells carrying one oncogenic KRAS allele). To this end, DLD-1 serum-starved cells (0.1% FCS) were treated with P14 (100 μM) at different times, and activation of AKT and ERK was evaluated by Western blot. […] As a 3-hour treatment was associated with major effects, we chose this duration for the subsequent experiments with the other compounds. Next, DLD-1 serum-starved cells were treated with P14A-P14C at 100 μM for 3 hours and activation of AKT and ERK was assessed as above. […] The kinetics of RAS downstream signaling was analyzed in P14B-treated cells compared to 10% FBS serum.
# Panc-1 cells = test: Cell Titre Glo viability assay, Panc-1; type: cell-based; details: Panc-1 cells (KRAS mutant G12D), after five days of treatment
# Method: In the next study, compounds were tested against cancer cells: pancreatic cancer cells (Panc-1), ovarian cancer cells (SW626) and uterine sarcoma cells (Mes-sa). The data generated using Cell Titre Glo® assays under standard conditions where the cells are grown in 384 well plates, then placed under continuous pressure of treatment for the relevant time period before being halted and assayed. The data collected is then plotted for analysis.
# FIG. […]
IC50 (Panc-1 cells) [µM],SMILES,activation of AKT and ERK [1],relative capacity to activate Ras effectors ERK and AKT among the compounds [1],"P-ERK and P-AKT levels, time course ([1]; DLD-1 serum-starved cells (0.1% FCS), 3 and 6 hours)",response among the molecules tested (Panc-1 cells)
,Cc1n[nH]c(O)c1C(c1ccc(F)cc1)c1c(C)n[nH]c1O [Example P14A],increase AKT and/or ERK signalling,highest activation of both Ras effectors,,
,Cc1n[nH]c(O)c1C(c1ccc2c(c1)OCO2)c1c(C)n[nH]c1O [Example P14C],activated AKT and ERK kinases; also recorded: increase AKT and/or ERK signalling,,,
,Cc1n[nH]c(O)c1C(c1ccccc1OCc1ccc(Cl)cc1)c1c(C)n[nH]c1O [Example P14],activated AKT and ERK kinases; also recorded: increase AKT and/or ERK signalling,most efficient,significantly increased P-ERK and P-AKT,
< 20,COc1ccc(C(c2c(C)n[nH]c2O)c2c(C)n[nH]c2O)cc1OCCc1ccc(Cl)cc1 [P14(J)SD],,,,best response

# Reference: patent publication US20260217656A1, “Compounds Affecting KRAS” (UNIVERSITAT DE BARCELONA, priority 2022, published 2026)
